Assay results from publication PMC9898036, “VIP152 is a selective CDK9 inhibitor with pre-clinical in vitro and in vivo efficacy in chronic lymphocytic leukemia” (Leukemia, 2022).

Tests used:
HG-3 cell line = assay: Nuclear CDK9 co-immunoprecipitation (LC-MS/MS proteomics, western blot); assay type: cell-based, human
Procedure: HG-3 cell line was treated with 1 µM VIP152 or DMSO for 2 h; nuclei were isolated using the Nuclear Complex Co-IP Kit (Active Motif) according to the manufacturer’s protocol. Nuclear lysate was immunoprecipitated using a CDK9 antibody (ab239364 - Abcam) or isotype control (3900 S – Cell Signaling Technology) with Dynabeads™ Protein G Immunoprecipitation Kit (10007D – ThermoFisher Scientific). Beads were submitted for proteomics to the Ohio State University Proteomics Center at the Campus Chemical Instrument Center. Full proteomic methods are available in the supplementary methods section.
Having observed the transcriptomic effects of VIP152 inhibition, we hypothesized a change in the P-TEFb complex would occur validating the mechanism of this agent. Previously, Dow et al. described changes in P-TEFb nuclear complexes with flavopiridol treatment; specifically, they observed loss of nuclear speckles of P-TEFb complexes containing HEXIM1, a major component of the 7SK-RNA complex that inhibits P-TEFb. We observed an increase in the 42 kDa and 55 kDa isoforms of CDK9, as well as Cyclin T1, in the nuclear fraction following treatment (Fig. 4A, B). […] Next, a nuclear immunoprecipitation of CDK9 after a two-hour drugging in the HG-3 cell line (n = 3) was performed, followed by liquid chromatography with tandem mass spectrometry (LC-MS/MS). We detected 226 differentially co-localized proteins and again observed an enrichment in the treated fraction for P-TEFb (Fig. 4B, C). […] These findings were validated via western blot in the MEC-1 and HG-3 cell lines (Supplementary Fig. 9). […] Finally, to appreciate the effect of inhibition on the association with the inhibitory 7SK-RNA complex, we performed reciprocal nuclear co-immunoprecipitation of CDK9 and HEXIM1 (Fig. 4E and Supplementary Fig. 10). […] This decrease in 7SK association due to inhibition is consistent with other work characterizing the disruption of the 7SK complex as a result of cellular stresses.
MSGF+ search engine against a reviewed UniProt human proteome (downloaded 12/07/2020) containing the cRAP and MaxQuant contaminant FASTAs32. Search parameters included: full trypsin digest, 1 missed cleavage, carbamidomethylation of cysteine as a fixed modification and oxidation of methionine as a variable modification with precursor and fragment mass tolerances of 10 ppm and 5 Da. PSM rescoring was performed with Percolator and protein inference was performed with Epifany across all samples, setting peptide and protein false discovery rates to 0.05. […]
All data analysis was performed with R (version 3.6.2) with various packages and is included in supplemental material (zipped File_S1). […] Data was quantile normalized, and significance (p-value < 0.05) determined by a modified exact test. […]

EGFR = EGFR (Homo sapiens, UniProt P00533); assay: KINOMEscan: EGFR; assay type: binding; details: 1000 nM, read-out: Percent Control
AURKB = AURKB (Homo sapiens, UniProt Q96GD4); assay: KINOMEscan: AURKB; assay type: binding; details: 1000 nM, read-out: Percent Control
AURKB, sequence (Q96GD4 whole entry): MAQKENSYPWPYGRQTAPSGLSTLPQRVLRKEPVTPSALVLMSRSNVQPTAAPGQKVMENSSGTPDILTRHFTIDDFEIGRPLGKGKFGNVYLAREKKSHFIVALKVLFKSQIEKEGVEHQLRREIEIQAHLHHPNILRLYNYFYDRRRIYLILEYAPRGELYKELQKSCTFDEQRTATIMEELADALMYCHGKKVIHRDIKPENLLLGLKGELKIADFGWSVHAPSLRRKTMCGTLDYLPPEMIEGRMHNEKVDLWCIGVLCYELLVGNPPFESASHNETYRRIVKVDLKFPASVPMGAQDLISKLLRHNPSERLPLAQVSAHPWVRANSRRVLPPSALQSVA

EGFR(T790M) = EGFR(T790M) (Homo sapiens, UniProt P00533, T790M); assay: KINOMEscan: EGFR(T790M); assay type: binding; details: 1000 nM, read-out: Percent Control
Tachykinin NK1 = Tachykinin NK1 (Homo sapiens, UniProt P25103); assay: Eurofins Diversity Panel; assay type: binding; details: hum, Conc. 10 μM
Tachykinin NK1, sequence (P25103 whole entry): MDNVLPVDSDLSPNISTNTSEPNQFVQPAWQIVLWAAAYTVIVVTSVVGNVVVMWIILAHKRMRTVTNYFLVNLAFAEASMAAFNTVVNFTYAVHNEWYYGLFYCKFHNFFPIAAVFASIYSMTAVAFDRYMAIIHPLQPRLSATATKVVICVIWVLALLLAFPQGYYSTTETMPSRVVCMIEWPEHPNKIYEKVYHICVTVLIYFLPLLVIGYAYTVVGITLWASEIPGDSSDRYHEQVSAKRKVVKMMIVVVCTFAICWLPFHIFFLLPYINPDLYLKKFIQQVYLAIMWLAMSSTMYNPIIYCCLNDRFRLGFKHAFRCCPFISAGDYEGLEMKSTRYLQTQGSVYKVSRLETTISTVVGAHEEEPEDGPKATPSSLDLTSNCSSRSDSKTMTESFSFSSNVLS

SRPK2 = SRPK2 (Homo sapiens, UniProt P78362); assay: KINOMEscan: SRPK2; assay type: binding; details: 100 nM, read-out: Percent Control
SRPK2, sequence (P78362 whole entry): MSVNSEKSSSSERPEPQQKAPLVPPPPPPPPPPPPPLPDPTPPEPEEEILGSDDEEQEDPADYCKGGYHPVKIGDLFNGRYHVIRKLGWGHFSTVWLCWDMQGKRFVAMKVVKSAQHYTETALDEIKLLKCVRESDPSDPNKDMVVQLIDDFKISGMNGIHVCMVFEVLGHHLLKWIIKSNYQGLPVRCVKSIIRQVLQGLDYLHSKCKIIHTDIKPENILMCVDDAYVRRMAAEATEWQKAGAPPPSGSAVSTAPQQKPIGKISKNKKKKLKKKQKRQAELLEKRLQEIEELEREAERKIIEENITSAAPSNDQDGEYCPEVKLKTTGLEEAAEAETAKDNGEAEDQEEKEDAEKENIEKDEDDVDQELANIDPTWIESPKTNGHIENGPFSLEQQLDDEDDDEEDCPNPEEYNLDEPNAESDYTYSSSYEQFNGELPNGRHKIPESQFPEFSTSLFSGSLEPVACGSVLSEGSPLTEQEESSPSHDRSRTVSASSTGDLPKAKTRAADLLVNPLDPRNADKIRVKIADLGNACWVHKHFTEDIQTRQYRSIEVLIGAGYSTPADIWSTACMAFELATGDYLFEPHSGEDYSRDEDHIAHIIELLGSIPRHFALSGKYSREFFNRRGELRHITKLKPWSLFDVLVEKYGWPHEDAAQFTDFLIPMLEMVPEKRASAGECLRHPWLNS

CAMK4 = CAMK4 (Homo sapiens, UniProt Q16566); assay: KINOMEscan: CAMK4; assay type: binding; details: 1000 nM, read-out: Percent Control
CAMK4, sequence (Q16566 whole entry): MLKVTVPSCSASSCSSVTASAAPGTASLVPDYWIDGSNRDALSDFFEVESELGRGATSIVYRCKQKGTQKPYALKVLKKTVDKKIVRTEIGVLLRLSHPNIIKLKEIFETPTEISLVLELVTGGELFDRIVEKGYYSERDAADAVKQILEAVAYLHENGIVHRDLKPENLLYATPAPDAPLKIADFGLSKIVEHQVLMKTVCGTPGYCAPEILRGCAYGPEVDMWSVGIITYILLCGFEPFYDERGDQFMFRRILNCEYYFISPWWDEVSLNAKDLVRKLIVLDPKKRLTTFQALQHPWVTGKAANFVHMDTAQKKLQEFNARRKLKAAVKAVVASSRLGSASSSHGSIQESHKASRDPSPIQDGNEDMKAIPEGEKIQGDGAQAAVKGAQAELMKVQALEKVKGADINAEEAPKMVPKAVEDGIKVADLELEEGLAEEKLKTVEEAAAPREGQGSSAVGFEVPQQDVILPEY

Sodium Channel, Site 2 = assay: Eurofins Diversity Panel; assay type: binding; details: rat, Conc. 10 μM
[1] = target: Leukotriene, Cysteinyl CysLT1 (Homo sapiens, UniProt Q9Y271); assay: Eurofins Diversity Panel; assay type: binding; details: hum, Conc. 10 μM
Leukotriene, Cysteinyl CysLT1, sequence (Q9Y271 whole entry): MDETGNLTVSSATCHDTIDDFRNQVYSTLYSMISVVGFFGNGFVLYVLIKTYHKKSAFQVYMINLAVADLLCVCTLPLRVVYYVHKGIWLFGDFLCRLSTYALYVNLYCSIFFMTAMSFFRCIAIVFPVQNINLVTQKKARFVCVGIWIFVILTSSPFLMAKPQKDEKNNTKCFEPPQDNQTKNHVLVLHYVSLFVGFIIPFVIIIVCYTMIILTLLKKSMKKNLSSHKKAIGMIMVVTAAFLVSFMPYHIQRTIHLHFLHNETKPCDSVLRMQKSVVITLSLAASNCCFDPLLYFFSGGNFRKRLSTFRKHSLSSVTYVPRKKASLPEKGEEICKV

KIT(D816V) = KIT(D816V) (Homo sapiens, UniProt P10721, D816V); assay: KINOMEscan: KIT(D816V); assay type: binding; details: 1000 nM, read-out: Percent Control
INSRR = INSRR (Homo sapiens, UniProt P14616); assay: KINOMEscan: INSRR; assay type: binding; details: 1000 nM, read-out: Percent Control
INSRR, sequence (P14616 27-1297): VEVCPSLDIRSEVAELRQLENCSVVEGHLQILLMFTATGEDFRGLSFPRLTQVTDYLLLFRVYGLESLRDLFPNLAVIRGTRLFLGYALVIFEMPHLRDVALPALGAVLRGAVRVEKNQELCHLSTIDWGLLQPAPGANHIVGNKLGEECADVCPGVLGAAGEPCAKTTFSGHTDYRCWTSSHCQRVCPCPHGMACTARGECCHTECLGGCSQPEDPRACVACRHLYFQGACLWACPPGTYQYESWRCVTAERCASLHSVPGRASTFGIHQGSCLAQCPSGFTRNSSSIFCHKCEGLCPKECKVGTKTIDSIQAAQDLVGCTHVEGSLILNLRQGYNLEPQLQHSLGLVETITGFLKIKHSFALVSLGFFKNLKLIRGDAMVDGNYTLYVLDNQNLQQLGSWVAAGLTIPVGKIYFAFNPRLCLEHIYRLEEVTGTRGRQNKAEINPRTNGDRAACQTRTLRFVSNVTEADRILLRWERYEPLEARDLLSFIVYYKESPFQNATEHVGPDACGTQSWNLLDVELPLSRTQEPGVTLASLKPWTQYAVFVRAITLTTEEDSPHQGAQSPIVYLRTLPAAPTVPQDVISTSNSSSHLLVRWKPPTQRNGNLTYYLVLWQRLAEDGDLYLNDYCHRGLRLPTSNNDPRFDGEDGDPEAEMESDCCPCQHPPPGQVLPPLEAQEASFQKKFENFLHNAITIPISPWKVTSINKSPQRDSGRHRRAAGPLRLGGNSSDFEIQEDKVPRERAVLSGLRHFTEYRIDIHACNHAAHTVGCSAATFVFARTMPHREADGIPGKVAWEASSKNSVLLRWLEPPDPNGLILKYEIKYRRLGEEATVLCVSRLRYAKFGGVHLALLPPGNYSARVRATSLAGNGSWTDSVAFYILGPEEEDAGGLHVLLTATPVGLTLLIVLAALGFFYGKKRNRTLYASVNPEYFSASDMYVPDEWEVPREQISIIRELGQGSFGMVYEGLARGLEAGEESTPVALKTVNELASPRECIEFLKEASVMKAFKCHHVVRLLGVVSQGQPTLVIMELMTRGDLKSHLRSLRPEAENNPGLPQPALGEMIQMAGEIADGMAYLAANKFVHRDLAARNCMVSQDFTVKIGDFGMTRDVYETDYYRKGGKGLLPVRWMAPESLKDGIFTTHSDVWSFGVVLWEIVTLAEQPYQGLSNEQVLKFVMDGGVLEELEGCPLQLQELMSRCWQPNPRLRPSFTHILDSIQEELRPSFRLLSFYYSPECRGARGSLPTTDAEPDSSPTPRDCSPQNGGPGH

MARK4 = MARK4 (Homo sapiens, UniProt Q96L34); assay: KINOMEscan: MARK4; assay type: binding; details: 1000 nM, read-out: Percent Control
CSK = CSK (Homo sapiens, UniProt P41240); assay: KINOMEscan: CSK; assay type: binding; details: 1000 nM, read-out: Percent Control
CSK, sequence (P41240 whole entry): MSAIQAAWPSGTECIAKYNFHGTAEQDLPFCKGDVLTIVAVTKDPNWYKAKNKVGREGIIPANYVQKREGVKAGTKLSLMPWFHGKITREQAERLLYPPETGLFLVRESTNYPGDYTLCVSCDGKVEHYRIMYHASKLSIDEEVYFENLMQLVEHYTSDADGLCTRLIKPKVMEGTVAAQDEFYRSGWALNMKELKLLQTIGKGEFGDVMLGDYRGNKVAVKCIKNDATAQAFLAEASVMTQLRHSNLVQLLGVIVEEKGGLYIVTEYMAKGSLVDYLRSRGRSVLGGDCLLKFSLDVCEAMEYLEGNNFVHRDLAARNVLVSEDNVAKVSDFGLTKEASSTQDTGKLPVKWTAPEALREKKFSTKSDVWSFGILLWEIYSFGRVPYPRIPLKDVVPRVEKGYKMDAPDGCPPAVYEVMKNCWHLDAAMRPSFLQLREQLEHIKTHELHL

MLK1 = MLK1 (Homo sapiens, UniProt P80192); assay: KINOMEscan: MLK1; assay type: binding; details: 1000 nM, read-out: Percent Control
ACVR2A = ACVR2A (Homo sapiens, UniProt P27037); assay: KINOMEscan: ACVR2A; assay type: binding; details: 1000 nM, read-out: Percent Control
ACVR2A, sequence (P27037 20-513): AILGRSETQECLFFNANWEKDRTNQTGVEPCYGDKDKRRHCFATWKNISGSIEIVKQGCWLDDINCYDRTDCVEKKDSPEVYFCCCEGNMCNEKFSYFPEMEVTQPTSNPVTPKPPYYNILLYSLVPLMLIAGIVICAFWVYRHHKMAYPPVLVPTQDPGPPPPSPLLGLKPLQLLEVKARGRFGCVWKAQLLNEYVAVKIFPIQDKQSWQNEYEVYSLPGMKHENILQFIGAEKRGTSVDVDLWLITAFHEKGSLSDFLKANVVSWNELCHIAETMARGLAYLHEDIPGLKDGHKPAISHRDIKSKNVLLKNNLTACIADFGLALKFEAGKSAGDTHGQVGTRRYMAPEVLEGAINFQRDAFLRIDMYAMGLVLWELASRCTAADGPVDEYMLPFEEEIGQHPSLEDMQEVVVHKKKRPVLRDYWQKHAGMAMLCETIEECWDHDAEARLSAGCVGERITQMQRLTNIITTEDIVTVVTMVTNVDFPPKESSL

MAPKAPK5 = MAPKAPK5 (Homo sapiens, UniProt Q8IW41); assay: KINOMEscan: MAPKAPK5; assay type: binding; details: 1000 nM, read-out: Percent Control
[2] = target: Epidermal Growth Factor (EGF) (Homo sapiens, UniProt P00533); assay: Eurofins Diversity Panel; assay type: binding; details: hum, Conc. 10 μM
α2B receptor = target: T1, α2B receptor (Homo sapiens, UniProt P18089); assay: Eurofins Diversity Panel: adrenergic α2B receptor; assay type: binding
T1 construct: purchased Eurofins

DDR2 = DDR2 (Homo sapiens, UniProt Q16832); assay: KINOMEscan: DDR2; assay type: binding; details: 1000 nM, read-out: Percent Control
LCK = LCK (Homo sapiens, UniProt P06239); assay: KINOMEscan: LCK; assay type: binding; details: 1000 nM, read-out: Percent Control
LCK, sequence (P06239 whole entry): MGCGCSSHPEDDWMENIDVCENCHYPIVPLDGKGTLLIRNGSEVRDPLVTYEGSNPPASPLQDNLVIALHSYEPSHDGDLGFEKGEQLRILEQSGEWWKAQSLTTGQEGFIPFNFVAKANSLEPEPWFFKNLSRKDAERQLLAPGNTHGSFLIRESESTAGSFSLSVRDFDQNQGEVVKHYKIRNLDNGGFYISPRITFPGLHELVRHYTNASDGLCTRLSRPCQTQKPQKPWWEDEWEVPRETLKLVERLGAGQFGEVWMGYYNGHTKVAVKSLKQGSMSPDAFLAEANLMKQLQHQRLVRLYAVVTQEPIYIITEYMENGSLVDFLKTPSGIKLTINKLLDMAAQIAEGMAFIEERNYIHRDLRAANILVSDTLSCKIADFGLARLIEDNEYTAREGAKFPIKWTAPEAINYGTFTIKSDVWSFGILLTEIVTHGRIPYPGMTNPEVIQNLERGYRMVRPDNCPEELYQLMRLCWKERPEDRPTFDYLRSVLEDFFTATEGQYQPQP

In the case of `COc1cc(F)ccc1-c1cc(Nc2cc(CS(C)(=N)=O)ccn2)ncc1F` (centres unmarked) [VIP152], the “association with transcription-associated machinery (SPT6H and IWS1) and RPB3” value (HG-3 cell line; 1 µM, 2 h, nuclear IP of CDK9) is reported as “decreased association”, the differentially co-localized proteins (HG-3 cell line; 1 µM, 2 h, nuclear IP of CDK9, LC-MS/MS) is reported as 226 and the “association with DDX21, Fold Change” value (HG-3 cell line; 1 µM, 2 h, nuclear IP of CDK9, proteomics) is reported as 1.47. The “association of CDK9 with 7SK-RNA complex components (HEXIM1, MEPCE, LARP7)” value (HG-3 cell line; HG-3 and MEC-1, reciprocal nuclear co-immunoprecipitation of CDK9 and HEXIM1) was “decreased association”, the remaining binding at 1 µM (EGFR) was 81% and the remaining binding at 1 µM (AURKB) was 57%. It also gave a remaining binding at 1 µM (EGFR(T790M)) of 94%, an inhibition at 10 µM (Tachykinin NK1) of 19% and a remaining binding at 0.1 µM (SRPK2) of 100%. The remaining binding at 1 µM (CAMK4) was 100%, the “% Inh.” value (Sodium Channel, Site 2) was 26% and the inhibition at 10 µM [1] was -22%. It also gave a remaining binding at 1 µM (KIT(D816V)) of 88%, a remaining binding at 1 µM (INSRR) of 85% and a remaining binding at 1 µM (MARK4) of 88%. For the same molecule, the remaining binding at 1 µM (CSK) was 92%, the remaining binding at 1 µM (MLK1) was 76% and the remaining binding at 1 µM (ACVR2A) was 75%. For the same molecule, the remaining binding at 1 µM (MAPKAPK5) was 89%, the inhibition at 10 µM [2] was -15% and the IC50 (α2B receptor) was 1180 nM. The remaining binding at 1 µM (DDR2) was 27% and the remaining binding at 1 µM (LCK) was 56%.
